Measured values from patent publication US20230016424A1, “HYBRID AMIDE DERIVATIVES OF AMPHOTERICIN B” (The Board of Trustees of the University of Illinois, priority 2019, published 2023).
Converted amounts (≈) assume the structure as drawn. “And” between values parts separate entries of the source, which are not always exact repeats. Identical values can stand only once.

Experiments:
Candida parapsilosis = assay: MIC against yeasts; assay type: cell-based; conditions: 8 isolates
Different Moulds = assay: Average MIC against different moulds; assay type: cell-based; parameters: MICavg moulds (159 strains): unit not given beside the values; conditions: for MIC: 157 isolates
[1] = UV-Vis sterol binding assay
Procedure: However, an alternative method was developed for reproducible formation of homogenous AmB and C2′epiAmB sterol sponge aggregates in vitro. Using these preparations, a quantitative UV-Vis and Principle Component (PCA) based assay for determining the apparent KDs for the binding of AmB and C2′epiAmB to ergosterol and cholesterol (FIGS. 5A-5D) was developed.
UV-Vis Binding Assay (FIG. 21A): The protocol for the sterol binding assay (UV-Vis) was developed in our lab. Compounds were dissolved in DMSO at a final concentration of 1 mM. Sterol were first dissolved in CHCl3 (>200 mM) and then diluted to 1 mM concentration with DMSO. To synthesize the complex 1 ul of compound solution was taken in a clean eppendorf tube (2 ml) and sterol solution (volume depends on the stoichiometry) was added to it and the volume was made up to 20 ul with DMSO. 0.98 ml of PBS buffer was added to the Eppendorf tube and mixed properly. The absorbance of the solution was measured after 30 mins of incubation.

[2] = system: C. albicans SN250, C. albicans, C. krusei, C. glabrata, C. tropicalis, A. fumigatus 91, 1163, 1100; assay: Average MIC over the tested strains; assay type: cell-based; parameters: Avg. MIC of AmB amide: unit not given here; conditions: for MIC: average over the 8 listed strains; for Avg. MIC of AmB amide: value of the corresponding C16 amide of AmB
Plasma Stability = assay type: in vitro ADME; conditions: for half-life at 1 µM: pH 7.4
Procedure: Plasma Stability: Procedure: […] Plasma was warmed to 37° C. prior to the experiment and centrifuged for 5 mins at 4000 rpm. […] Each time point was monitored in triplicate (0, 10, 30, 60 and 120 min). 4 uL/well aliquot of the working solution was mixed to the blank plasma and incubated at 37° C. AT each time point samples were quenched with ACN stop solution containing 200 ng/ml Tolbutamide & 200 ng/ml Labetalol at 1:3 ratio and mix well on shaker for 10 min then centrifuge at 4000 rpm for 15 min. A 100 ul aliquot of supernatant was mixed with 100 μL of ultra-pure and submitted for LC-MS/MS analysis.

Fonsecaea sp. = assay: MIC against moulds; assay type: cell-based; conditions: 6 isolates
A. terreus = assay: MIC against moulds; assay type: cell-based; conditions: 6 isolates
Apophysomyces sp. = assay: MIC against moulds; assay type: cell-based; conditions: 3 isolates
Fusarium oxysporum = assay: MIC against moulds; assay type: cell-based; conditions: 6 isolates
A. niger = assay: MIC against moulds; assay type: cell-based; conditions: 6 isolates
Cryptococcus neoformans = assay: MIC against yeasts; assay type: cell-based; conditions: 10 isolates
Cryptococcus gattii = assay: MIC against yeasts; assay type: cell-based; conditions: 10 isolates
[3] = Liver microsome stability, summary for all species; assay type: in vitro ADME; conditions: Mouse, rat, dog, monkey, human: All species
Procedure: Working Compound solution: 10 uM in 50 mM potassium phosphate buffer with 9% MeOH and 1% DMSO
Microsome solution: working concentration 0.625 mg/ml
Stopping solution: Cold ACN with 200 ng/ml Tolbutamide and 200 ng/ml Labetalol (4° C.)
Procedure: In the well plates (T5, T10, T20, T30, T60, NCF60 (no cofactor 60)) 10 uL of the compound/control working solution was added (except T0 and matric blank) followed by microsome solution (80 uL) and the mixture was incubated at 37 C for about 10 mins. A solution of potassium phosphate (10 ul of 50 mM) was added to NCF60 well, incubated at 37 C and time counting started. After prewarming 10 ul of NADPH regenerating solution was added to each plate to start the reaction. At different time point 300 uL/well of stopping solution to terminate the reaction. The sampling plates were shaken for 10 mins and the centrifuged for 20 mins at 4000 rpm. The supernatant was half diluted with ultra pure water and the analyzed using LCMS.

Sporothrix schenckii = assay: MIC against rare moulds resistant to AmB; assay type: cell-based; conditions: 6 isolates
Saksenaea sp. = assay: MIC against moulds; assay type: cell-based; conditions: 4 isolates
Mucor circinelloides = assay: MIC against moulds; assay type: cell-based; conditions: 6 isolates
A. flavus = assay: MIC against moulds; assay type: cell-based; conditions: 6 isolates
moulds (3 strains) = assay: MICavg moulds (3 strains); assay type: cell-based; parameters: unit not given beside the values
CYP2C19 = target: T1, CYP2C19 (Homo sapiens, UniProt P33261); assay: CYP Inhibition; assay type: in vitro ADME; conditions: human liver microsome; for P450 2C19 % Inhibition: 10 um
T1 construct: 158 ul of human liver microsome (HLM) was added to all the wells; from tissue; host or cells: human liver microsomes

[4] = system: Purpureocillium lilacinum; assay: MIC against rare moulds resistant to AmB; assay type: cell-based; conditions: 6 isolates
A. lentulus = assay: MIC against moulds; assay type: cell-based; conditions: 6 isolates
Lomentospora prolificans = assay: MIC against rare moulds resistant to AmB; assay type: cell-based; conditions: 6 isolates
Fusarium solani = assay: MIC against moulds; assay type: cell-based; conditions: 6 isolates
Scedosporium aurantiacum = assay: MIC against rare moulds resistant to AmB; assay type: cell-based; conditions: 4 isolates
Talaromyces marneffei = assay: MIC against moulds; assay type: cell-based; conditions: 6 isolates
A. calldoustus = assay: MIC against moulds; assay type: cell-based; conditions: 6 isolates
[5] = system: P. variotii MYA-3630 (QC); assay: MIC against moulds; assay type: cell-based; conditions: 5 isolates
Mucor velutinosus = assay: MIC against moulds; assay type: cell-based; conditions: 6 isolates
Mucor janssenii = assay: MIC against moulds; assay type: cell-based; conditions: 6 isolates
[6] = Table 12, C16 amides of C2'epiAmB
[7] = Table 13, C16 amides of C2’epiAmB

T1 sequence (P33261 whole entry): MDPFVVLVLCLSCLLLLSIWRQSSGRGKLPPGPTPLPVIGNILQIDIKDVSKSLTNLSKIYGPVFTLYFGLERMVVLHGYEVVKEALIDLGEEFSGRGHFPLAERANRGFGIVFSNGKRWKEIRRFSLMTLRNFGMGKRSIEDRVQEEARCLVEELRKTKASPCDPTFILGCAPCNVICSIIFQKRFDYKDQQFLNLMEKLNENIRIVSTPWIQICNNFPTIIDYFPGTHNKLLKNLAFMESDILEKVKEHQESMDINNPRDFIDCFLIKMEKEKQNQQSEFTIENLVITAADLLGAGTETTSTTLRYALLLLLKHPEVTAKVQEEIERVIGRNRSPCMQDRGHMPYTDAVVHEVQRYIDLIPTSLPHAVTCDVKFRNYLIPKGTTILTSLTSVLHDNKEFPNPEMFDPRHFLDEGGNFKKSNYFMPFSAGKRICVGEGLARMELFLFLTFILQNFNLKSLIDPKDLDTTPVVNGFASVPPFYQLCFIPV

C[C@@H]1[C@H](O)[C@@H](C)/C=C/C=C/C=C/C=C/C=C/C=C/C=C/[C@H](OC2O[C@H](C)[C@@H](O)[C@H](N)[C@@H]2O)C[C@@H]2O[C@](O)(C[C@@H](O)C[C@@H](O)[C@H](O)CC[C@@H](O)C[C@@H](O)CC(=O)O[C@H]1C)C[C@H](O)[C@H]2C(=O)O (some centres unmarked) [AmB, Amphotericin B]
MIC (Candida parapsilosis; Lodderomyces parapsilosis): 1.1 µM (≈ 1.02 µg/mL) | MICavg moulds (159 strains) (Different Moulds): 0.9 | MIC (Different Moulds): 0.9 µM (≈ 0.832 µg/mL) | Binds Cholesterol [1]: Yes | Cholesterol Binding [1]: Yes | MIC [2]: 0.642 µM and 0.44 µM | % Remaining at 120 min (Plasma Stability; Human Plasma): 97.7% | Half Life (Plasma Stability; Human Plasma): >289; >289 min | % Remaining at 120 min (Plasma Stability; Rat Plasma): 88.3% | half-life at 1 µM (Plasma Stability; Human Plasma): > 4.82 h | half-life at 1 µM (Plasma Stability; Mouse Plasma): > 4.82 h | half-life at 1 µM (Plasma Stability; Rat Plasma): > 4.82 h | MIC (Fonsecaea sp.; Fonsecaea): < 0.03 µM | MIC (A. terreus; Aspergillus terreus): 3 µM (≈ 2.77 µg/mL) | MIC (Apophysomyces sp.): 0.75 µM (≈ 0.693 µg/mL) | MIC (Fusarium oxysporum; Fusarium oxysporum): 1.5 µM (≈ 1.39 µg/mL) | MIC (A. niger; Aspergillus niger): 0.21 µM (≈ 0.194 µg/mL) | MIC (Cryptococcus neoformans; Cryptococcus neoformans): 0.55 µM (≈ 0.508 µg/mL) | MIC (Cryptococcus gattii; Cryptococcus gattii): 0.75 µM (≈ 0.693 µg/mL) | half-life at 1 µM ([3]; liver microsomes, read-out: Liver microsome T1/2): > 2.42 h | MIC (Sporothrix schenckii; Sporothrix schenckii): 4 µM (≈ 3.7 µg/mL) | MIC (Saksenaea sp.): 0.06 µM (≈ 0.0554 µg/mL) | MIC (Mucor circinelloides; Mucor circinelloides): 0.125 µM (≈ 0.116 µg/mL) | MIC (A. flavus; Aspergillus flavus): 1.16 µM (≈ 1.07 µg/mL) | MICavg moulds (3 strains) (moulds (3 strains)): 0.92 | inhibition at 10 min, 10 µM (CYP2C19; human liver microsomes, probe 5 in 1 substrate cocktail (substrates not named), read-out: P450 2C19 % Inhibition): 7.3% | MIC ([4]; Purpureocillium lilacinum): > 16 µM | MIC (A. lentulus; Aspergillus lentulus): 3.75 µM (≈ 3.47 µg/mL) | MIC (Lomentospora prolificans; Lomentospora prolificans): > 16 µM | MIC (Fusarium solani; Fusarium solani): 1.33 µM (≈ 1.23 µg/mL) | MIC (Scedosporium aurantiacum; Scedosporium aurantiacum): > 16 µM | MIC (Talaromyces marneffei; Talaromyces marneffei): 0.09 µM (≈ 0.0832 µg/mL) | MIC (A. calldoustus): 1.5 µM (≈ 1.39 µg/mL) | MIC ([5]; Paecilomyces variotii): 1 µM (≈ 0.924 µg/mL) | MIC (Mucor velutinosus; Mucor velutinosus): 0.08 µM (≈ 0.0739 µg/mL) | MIC (Mucor janssenii; Mucor janssenii): 0.06 µM (≈ 0.0554 µg/mL)

CC1C=CC=CC=CC=CC=CC=CC=CC(OC2OC(C)C(O)C(N)C2O)CC2OC(O)(CC(O)CC(O)C(O)CCC(O)CC(O)CC(=O)OC(C)C(C)C1O)CC(O)C2C(=O)NCCO (centres unmarked) [Compound BA]
MIC (Candida parapsilosis): 2.5 µM (≈ 2.42 µg/mL) | MICavg moulds (159 strains) (Different Moulds): 2.3 | MIC (Different Moulds): 2.3 µM (≈ 2.22 µg/mL) | Binds Cholesterol [1]: No | Cholesterol Binding [1]: No | Average MIC [2, 6]: 1.031 µM | Average MIC [2, 7]: 1030 µM | MIC [2]: 0.727 µM | Average MIC for AmB analogue ([2]; value of the corresponding AmB analogue, not of the C2’epi compound): 0.328 μM | Avg. MIC of AmB amide ([2]; not of the C2’epi compound): 0.18 | % Remaining at 120 min (Plasma Stability; Human Plasma): 118% | Half Life (Plasma Stability; Human Plasma): >289 min and >289; >289 min | % Remaining at 120 min (Plasma Stability; Mouse Plasma): 100% | Half Life (Plasma Stability; Mouse Plasma): >289 min and >289; >289 min | MIC (Fonsecaea sp.): 0.06 µM (≈ 0.058 µg/mL) | MIC (A. terreus): 3.33 µM (≈ 3.22 µg/mL) | MIC (Apophysomyces sp.): 16 µM (≈ 15.5 µg/mL) | MIC (Fusarium oxysporum): 11.3 µM (≈ 10.9 µg/mL) | MIC (A. niger): 0.58 µM (≈ 0.561 µg/mL) | MIC (Cryptococcus neoformans): 2 µM (≈ 1.93 µg/mL) | MIC (Cryptococcus gattii): 2 µM (≈ 1.93 µg/mL) | Liver microsome T1/2 [3]: >2.42 h | MIC (Sporothrix schenckii): 6 µM (≈ 5.8 µg/mL) | MIC (Saksenaea sp.): 0.34 µM (≈ 0.329 µg/mL) | MIC (Mucor circinelloides): 1 µM (≈ 0.967 µg/mL) | MIC (A. flavus): 2.67 µM (≈ 2.58 µg/mL) | MICavg moulds (3 strains) (moulds (3 strains)): 1.3 | P450 2C19 % Inhibition (CYP2C19): 26.0% | MIC [4]: >16 µM | MIC (A. lentulus): 3 µM (≈ 2.9 µg/mL) | MIC (Lomentospora prolificans): >16 µM | MIC (Fusarium solani): 8.67 µM (≈ 8.39 µg/mL) | MIC (Scedosporium aurantiacum): >16 µM | MIC (Talaromyces marneffei): 0.15 µM (≈ 0.145 µg/mL) | MIC (A. calldoustus): 1.67 µM (≈ 1.62 µg/mL) | MIC [5]: 2.7 µM (≈ 2.61 µg/mL) | MIC (Mucor velutinosus): 1.25 µM (≈ 1.21 µg/mL) | MIC (Mucor janssenii): 0.92 µM (≈ 0.89 µg/mL)

CC1C=CC=CC=CC=CC=CC=CC=CC(OC2OC(C)C(O)C(N)C2O)CC2OC(O)(CC(O)CC(O)C(O)CCC(O)CC(O)CC(=O)OC(C)C(C)C1O)CC(O)C2C(=O)NCCF (centres unmarked) [Compound BM]
MIC (Candida parapsilosis): 2.4 µM (≈ 2.33 µg/mL) | MICavg moulds (159 strains) (Different Moulds): 2.2 | MIC (Different Moulds): 2.3 µM (≈ 2.23 µg/mL) | Binds Cholesterol [1]: No | Average MIC [2, 6]: 0.844 µM | Average MIC [2, 7]: 840 µM | Avg. MIC of AmB amide ([2]; not of the C2’epi compound): 0.39 | Half Life (Plasma Stability; Human Plasma): >289; >289 min | Half Life (Plasma Stability; Mouse Plasma): >289; >289 min | MIC (Fonsecaea sp.): <0.03 µM | MIC (A. terreus): 1.08 µM (≈ 1.05 µg/mL) | MIC (Apophysomyces sp.): 8.3 µM (≈ 8.04 µg/mL) | MIC (Fusarium oxysporum): 9.3 µM (≈ 9.01 µg/mL) | MIC (A. niger): 3 µM (≈ 2.91 µg/mL) | MIC (Cryptococcus neoformans): 2 µM (≈ 1.94 µg/mL) | MIC (Cryptococcus gattii): 2 µM (≈ 1.94 µg/mL) | Liver microsome T1/2 [3]: >2.42 h | MIC (Sporothrix schenckii): 6.67 µM (≈ 6.46 µg/mL) | MIC (Saksenaea sp.): 0.34 µM (≈ 0.33 µg/mL) | MIC (Mucor circinelloides): 1 µM (≈ 0.969 µg/mL) | MIC (A. flavus): 2.5 µM (≈ 2.42 µg/mL) | MICavg moulds (3 strains) (moulds (3 strains)): 1.7 | P450 2C19 % Inhibition (CYP2C19): 19.7% | MIC [4]: >16 µM | MIC (A. lentulus): 2.83 µM (≈ 2.74 µg/mL) | MIC (Lomentospora prolificans): >16 µM | MIC (Fusarium solani): 8.8 µM (≈ 8.53 µg/mL) | MIC (Scedosporium aurantiacum): >16 µM | MIC (Talaromyces marneffei): 0.2 µM (≈ 0.194 µg/mL) | MIC (A. calldoustus): 1.5 µM (≈ 1.45 µg/mL) | MIC [5]: 2.67 µM (≈ 2.59 µg/mL) | MIC (Mucor velutinosus): 0.92 µM (≈ 0.892 µg/mL) | MIC (Mucor janssenii): 0.92 µM (≈ 0.892 µg/mL)
